Data published in PMC2139785 (The Journal of Cell Biology, 1997).

Target: p62^cplx-associated PI3-kinase (100-kD catalytic subunit)
Assay: PI3-kinase lipid kinase assay
Format: biochemical, Rattus norvegicus

Question: Which IC50 does the source give for `COC[C@H]1OC(=O)c2coc3c2[C@@]1(C)C1=C(C3=O)[C@@H]2CCC(=O)[C@@]2(C)C[C@H]1OC(C)=O` [wortmannin] here?
Answer: ~3.5 µM
